Assay results: US10881677B2, “Composition for modulating IRAK1” (Agency for Science, Technology and Research, priority 2015, dated 2021)
Entries after “also recorded” stand apart in the source; their conditions may differ.

How the values were obtained:
Type in all cases: cell-based
[1] = target: T1, p-IRAK1 (T209) (Homo sapiens, UniProt P51617); test: Western blot of p-IRAK1 in immunoprecipitated IRAK1; conditions: for induction of p-IRAK1 by chemotherapeutic agent: MDA231 (also SUM159) cells, PTX 5 nM, ADR 2 μM, Cisplatin 5 μM, up to 48 hours
T1 construct: The whole cell lysate were extracted with the NE-PER kit (Pierce Biotechnology) and subjected to immunoprecipitation using 2 μg total-IRAK1 antibody; endogenous in cells; host or cells: TNBC cell lines (BT549, MB436, MB468, MDA231, MDA231-LM2, SUM159 and paclitaxel-resistant sublines)
T1 sequence (P51617 whole entry): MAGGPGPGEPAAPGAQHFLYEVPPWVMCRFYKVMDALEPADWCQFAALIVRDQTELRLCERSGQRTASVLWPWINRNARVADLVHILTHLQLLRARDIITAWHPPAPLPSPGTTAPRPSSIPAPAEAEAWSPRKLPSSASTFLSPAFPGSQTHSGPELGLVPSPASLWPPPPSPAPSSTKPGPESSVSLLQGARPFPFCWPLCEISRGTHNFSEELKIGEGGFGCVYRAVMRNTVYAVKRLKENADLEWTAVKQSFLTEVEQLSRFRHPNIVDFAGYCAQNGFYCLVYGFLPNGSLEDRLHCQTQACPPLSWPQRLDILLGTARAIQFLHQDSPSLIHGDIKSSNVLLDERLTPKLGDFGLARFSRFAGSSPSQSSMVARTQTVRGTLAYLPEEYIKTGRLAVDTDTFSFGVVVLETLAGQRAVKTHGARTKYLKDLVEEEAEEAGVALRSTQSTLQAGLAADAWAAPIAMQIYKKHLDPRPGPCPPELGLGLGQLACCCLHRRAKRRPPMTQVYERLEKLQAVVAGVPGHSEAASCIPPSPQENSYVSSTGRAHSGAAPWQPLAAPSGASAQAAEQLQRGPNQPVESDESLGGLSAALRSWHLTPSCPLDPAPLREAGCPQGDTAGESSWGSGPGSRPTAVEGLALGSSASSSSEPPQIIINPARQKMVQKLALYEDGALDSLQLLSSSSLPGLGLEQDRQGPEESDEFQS
Experimental: Western Blotting was performed as described previously (8). IRAK1 (Cat no: #4359), IRAK4 (Cat no.: 4363), cleaved PARP (Cat no.: #9541), p38 MAPK (Cat no.: #9212), phospho-p38 MAPK (T180/Y182) (Cat no.: #9211), phospho-NF-KappaB p65 (S536) (Cat no. #3031) were purchased from Cell Signaling (Danvers, Mass.). Phospho-IRAK1 (T209) antibody was purchased from Assay Biotech (Sunnyvale, Calif., Cat no.: A1074) and phospho-IRAK1 (S376) antibody from Genetex (Irvine, Calif., Cat no.: GTX50994). MCL-1 antibody was purchased from Santa Cruz Biotechnology (Santa Cruz, Calif., Cat no.: sc-819). Actin was purchased from Sigma-Aldrich (St Louis, Mo., Cat no.: A5441). Detection of bands was performed with the ChemiDoc™ MP Imaging Systems (Bio-Rad, Hercules, Calif.) and bands were subjected to further densitometric analysis with Image Lab software (Version 4.1, Bio-rad, Hercules, Calif.).
Co-IP was performed as described previously (9). The whole cell lysate were extracted with the NE-PER kit (Pierce Biotechnology) and subjected to immunoprecipitation using 2 μg total-IRAK1 antibody (Santa Cruz Biotech, Santa Cruz, Calif., Cat no.: sc-7883). The precipitated protein complex was captured using protein A-Agarose beads (Roche) and extensively washed with the washing buffer (50 mM Tris-HCl, 150 mM NaCl, 0.1% triton). The precipitated proteins were dissolved in SDS sample buffer along with 3 mM DTT, and subjected to immunoblotting analysis. Phospho-IRAK1 (T209) (Assay Biotechnology, Sunnyvale, Calif., Cat no.: A1074) was used for detection.

[2] = tested on: IL1B, IL6 and IL8 mRNAs in MDA231 cells; test: qRT-PCR of cytokine mRNAs after chemotherapy; conditions: 5 nM PTX, VCR 3 days
Experimental: Total RNA was isolated by using Qiazol (Life technologies, Carlsbad, Calif.) and purified with the RNeasy Mini Kit (Qiagen, Valencia, Calif.). Reverse transcription and quantitative PCR assays were performed using High Capacity cDNA Archive kit and KAPA SyBr Fast qPCR kit (KAPA Biosystems, Wilmington, Mass.). For quantification of mRNA levels, 18S level was used as an internal control. All reactions were analyzed in an Applied Biosystems PRISM 7500 Fast Real-Time PCR system in 96-well plate format.

[3] = tested on: MDA231-PR cells; test: Cell viability IC50 curves, sensitivity of paclitaxel-resistant cells to agents
Excerpt: FIG. 17. (a). IC50 curves showing cell viability after treatment with paclitaxel (PTX), vincristine (VCR), gemcitabine, doxorubicin (ADR), cisplatin, 5-fluorouracil (5-FU) and pacritinib in parental and pacitaxel-treated MDA-MB-231 (MDA231-PR) cells. (b). Graphical representation of relative sensitivities. (c).
(§1) For cell proliferation assay, the optimal cell seeding was first determined empirically for all cell lines by examining the growth of a wide range of seeding densities in a 96-well format to identify conditions that permitted proliferation for 7 days. Cells were then plated at the optimal seeding density 24 h before siRNA or drug treatment in triplicate. Plates were incubated for 7 days at 37° C. in 5% CO2. Cells were then lysed with CellTiter-Glo (CTG) (Promega, Madison, Wis.) and chemiluminescent signal was detected with a microplate reader on Day 0, 1, 3, 5 and 7. In addition, an untreated plate of cells was harvested at the time of drug or siRNA addition (T0) to quantify the starting number of cells. CTG values obtained after the 7 day treatment were expressed as percentages of the T0 value and plotted against time of treatment.

[4] = tested on: SUM159PR or MDA231PR; test: Acquired Paclitaxel resistance of stepwise-selected resistant sublines; conditions: SUM159PR kept in 1 μM, MDA231PR in 75 nM Paclitaxel
Experimental: (§2) To establish the Paclitaxel acquired resistant TNBC cell lines, both SUM159PT and MDA231 cells were used. […] During these treatment cycles, only cells with a high intrinsic resistance or those which had acquired resistance to the drug survived. The cycle was further repeated until the stable resistant cell line (SUM159PR or MDA231PR) SUM159PR cells were stably maintained in 1 μM Paclitaxel and MDA231 in 75 nM of Paclitaxel with complete medium, making them at least ˜1000-fold more resistant than their parental cell lines.

[5] = tested on: BT549, MB436, MB468, MDA231 and MDA231-LM2 cells; test: Mammosphere formation assay; conditions: MDA231 cells, 10 nM Paclitaxel 4 days, remaining viable cells
Experimental: Active growing cells were treated with 0.05% trypsin for 10 minutes then passed through […] cell strainer to achieve single cell suspension. Cells were plated (MDA231: 1×10^4; MB436: 3×10^4; MB468: 4×10^4 cells/well, BT549: 3×10^4, MDA231-LM2: 3×10^4) seeded in 6-well ultra-low attachment plates (Corning, Corning, N.Y., cat: CLS3471) in Mammocult medium (Stem cell Technologies, Vancouver, BC, Canada), supplemented with fresh hydrocortisone (0.51 μg/ml) and heparin (1:500). Tumorspheres were cultured for 7 days prior to being counted and photographed. Imaging and quantification were done using GelCount™ apparatus and associated software (Oxford Optronix, Abingdon, UK). For serial passages of tumorsphere formation assay, the spheres were collected by gentle centrifugation, dissociated to single cells for passaging tumorspheres every 14 days and counted. Tumorspheres were photographed and quantified 7-12 days later using a GelCount Colony Counter after staining with INT.

[6] = tested on: SUM159PT; test: Paclitaxel EC50 in parental SUM159PT cells; conditions: Homo sapiens, SUM-159-PT, read-out: intrinsic EC50 to Paclitaxel
Experimental: as §2, §1

[7] = tested on: ALDH-positive cell population; test: ALDEFLUOR assay; conditions: after paclitaxel treatment
Experimental: ALLEFLUOR assay was performed using the manufacturer's recommended protocol (ALDEFLUOR kit, Stemcell Technologies; catalogue number: #01700). In brief, one million single-cell suspensions were centrifuged and resuspended in ALDEFLUOR assay buffer supplied in the kit. Each sample cells were incubated with or without an ALDH-specific inhibitor 15 mM diethylaminobenzaldehyde in the presence of 0.15 mM ALDH substrate. ALDEFLUOR stainings were detected using fluorescein isothiocyanate channel of a FACSCalibur Flow Cytometry System (BD Biosciences) after 25 min incubation at 37° C. Diethylaminobenzaldehyde inhibitor control sample was used as sorting gate reflecting background fluorescence levels for each cell lines.

Q: With CC(=O)O[C@H]1C(=O)[C@@]2(C)[C@H]([C@H](OC(=O)c3ccccc3)[C@]3(O)C[C@H](OC(=O)[C@H](O)[C@@H](NC(=O)c4ccccc4)c4ccccc4)C(C)=C1C3(C)C)[C@]1(OC(C)=O)CO[C@@H]1C[C@@H]2O [Paclitaxel] as the compound, how does the “induction of p-IRAK1 by chemotherapeutic agent” value [1] read?
A: marked induction

Q: What about the “induction of p-IRAK1 by chemotherapeutic agent” value ([1]; listed as paclitaxel) of the same compound?
A: marked induction

Q: What about the “IRAK1 signaling activated by chemotherapeutic agents” value ([1]; discussion statement) of the same compound?
A: activated

Q: And the “expression of IL1B, IL6 and IL8 mRNAs” value [2]?
A: induced

Q: And the “shift of the IC50 curve” value ([3]; MDA231-PR versus parental MDA-MB-231)?
A: marked right shift

Q: And the “sensitivity of paclitaxel-resistant cells to agent” value ([3]; paclitaxel-treated/resistant cells over-expressing p-IRAK1)?
A: markedly resistant; also recorded: no longer susceptible; also recorded: no longer responsive

Q: And the “fold more resistant than parental cell lines” value [4]?
A: ≥ 1000 fold

Q: And the “mammosphere forming capacity after Paclitaxel pretreatment” value [5]?
A: increased mammosphere forming capacity

Q: And the “mammosphere forming capacity after Paclitaxel pretreatment” value ([5]; listed as paclitaxel)?
A: potentiated mammosphere formation

Q: What about the EC50 [6] of the same compound?
A: 3.88 nM

Q: And the ALDH-positive cell population [7]?
A: expansion of the ALDH-positive cell population
